ChEMBL document CHEMBL1201862, “PubChem BioAssay data set” (2004)
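Step 1: Grow cells in 96-well plates. Step 2: Expose to compound for 48 hours at 5 concentrations. Step 3: Interpolate endpoints linearly; if unreached, use highest concentration. The concentration for 50% growth inhibition is given as GI50.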 Activity calls are given as the source filed them. Cut-off read from the data, not from the text of the source: active = GI50 up to about 1.1 µM and inactive = higher.

Assays:
Assay in all cases: inhibition of tumour cell growth, NCI panel, 48 h
[1] = test system: 786-0
[2] = test system: CCRF-CEM
[3] = test system: COLO 205
[4] = test system: EKVX
[5] = test system: HCC 2998
[6] = test system: HOP-62
[7] = test system: HT-29
[8] = test system: KM12
[9] = test system: MCF7
[10] = test system: MDA-MB-435
[11] = test system: NCI-H226
[12] = test system: NCI-H460
[13] = test system: NCI-H522
[14] = test system: OVCAR-4
[15] = test system: OVCAR-8
[16] = test system: SF-268
[17] = test system: SK-MEL-2
[18] = test system: SK-MEL-5
[19] = test system: SN12C
[20] = test system: SW-620

SMILES | GI50 [1] | GI50 [2] | GI50 [3] | GI50 [4] | GI50 [5] | GI50 [6] | GI50 [7] | GI50 [8] | GI50 [9] | GI50 [10] | GI50 [11] | GI50 [12] | GI50 [13] | GI50 [14] | GI50 [15] | GI50 [16] | GI50 [17] | GI50 [18] | GI50 [19] | GI50 [20]
CC(=O)O[C@H]1C(=O)[C@@]2(C)C(C(OC(=O)c3ccccc3)[C@]3(O)CC(OC(=O)C(O)C(NC(=O)c4cccc(Cl)c4)c4ccccc4)C(C)=C1C3(C)C)[C@]1(OC(C)=O)CO[C@@H]1C[C@@H]2O (stereo not given in full) | 0.728 µM (active) | 0.262 µM (active) | 0.385 µM (active) | > 10 µM (inactive) | 0.0664 µM (active) | 0.518 µM (active) | 0.269 µM (active) | 0.507 µM (active) | 0.344 µM (active) | 0.118 µM (active) | > 10 µM (inactive) | 0.419 µM (active) | 0.912 µM (active) | 3.96 µM (inactive) | 0.653 µM (active) | 0.268 µM (active) | 0.656 µM (active) | 0.42 µM (active) | 0.628 µM (active) | 0.838 µM (active)
O=c1c2sc(=S)n(-c3ccc(F)cc3)c2ncn1/N=C/c1ccc(F)cc1F | 17.2 µM (inactive) | 63.7 µM (inactive) | > 100 µM (inactive) | 16.6 µM (inactive) | 31 µM (inactive) | 16.6 µM (inactive) | > 100 µM (inactive) | 79.8 µM (inactive) | 41.5 µM (inactive) | 83.9 µM (inactive) | 24.4 µM (inactive) | 39.2 µM (inactive) | 44.5 µM (inactive) | 18.9 µM (inactive) | 20.1 µM (inactive) | 18.7 µM (inactive) | 25.4 µM (inactive) | 58.1 µM (inactive) | 31.3 µM (inactive) | > 100 µM (inactive)
N#Cc1c(N)nc2c(/N=N\c3ccccc3)c(N)nn2c1Nc1ccccc1 | 18.6 µM (inactive) | 4.37 µM (inactive) | 9.93 µM (inactive) | 5.37 µM (inactive) | 4.41 µM (inactive) | 20.3 µM (inactive) | 12.4 µM (inactive) | 4.75 µM (inactive) | 1.51 µM (inactive) | 16.4 µM (inactive) | 25.7 µM (inactive) | 10.1 µM (inactive) | 17.8 µM (inactive) | 14.9 µM (inactive) | 3.72 µM (inactive) | 26.7 µM (inactive) | 7.91 µM (inactive) | 14.9 µM (inactive) | 7.69 µM (inactive) | 10.8 µM (inactive)
CN(C)c1ccc(/C=C/c2nc3ccccc3s2)cc1 | > 100 µM (inactive) | > 100 µM (inactive) | > 100 µM (inactive) | > 100 µM (inactive) | > 100 µM (inactive) | > 100 µM (inactive) | > 100 µM (inactive) | > 100 µM (inactive) | > 100 µM (inactive) | 45.1 µM (inactive) | > 100 µM (inactive) | > 100 µM (inactive) | > 100 µM (inactive) | > 100 µM (inactive) | > 100 µM (inactive) | > 100 µM (inactive) | > 100 µM (inactive) | > 100 µM (inactive) | > 100 µM (inactive) | > 100 µM (inactive)
COc1cc(C(c2c(O)c3ccccc3oc2=O)c2c(O)c3ccccc3oc2=O)ccc1O | 20.2 µM (inactive) | 28.8 µM (inactive) | 17.2 µM (inactive) | 27.9 µM (inactive) | 18.9 µM (inactive) | 44.4 µM (inactive) | 21.1 µM (inactive) | 32.7 µM (inactive) | 19.3 µM (inactive) | 33 µM (inactive) | 50.4 µM (inactive) | 20.9 µM (inactive) | 20.8 µM (inactive) | 49.1 µM (inactive) | 27.7 µM (inactive) | 21.5 µM (inactive) | 25.2 µM (inactive) | 15.7 µM (inactive) | 19.1 µM (inactive) | 23.7 µM (inactive)
Cc1ccccc1-n1c(=O)nc2n(-c3ccc(C(C)(C)C)cc3)c3ccccc3cc-2c1=O | 24.4 µM (inactive) | 19.8 µM (inactive) | 18.5 µM (inactive) | 22.4 µM (inactive) | 18.1 µM (inactive) | 20.2 µM (inactive) | 16.5 µM (inactive) | 15.3 µM (inactive) | 22.9 µM (inactive) | 11.3 µM (inactive) | 18.8 µM (inactive) | 15.3 µM (inactive) | 21.7 µM (inactive) | 26.5 µM (inactive) | 17.1 µM (inactive) | 27.5 µM (inactive) | 16.7 µM (inactive) | 15.1 µM (inactive) | 17.7 µM (inactive) | 15.9 µM (inactive)
COc1cc2ccc1OCc1cccc(n1)COc1ccc(cc1OC)/C=N\c1ccc(cc1)-c1ccc(cc1)/N=C\2 | > 100 µM (inactive) | > 100 µM (inactive) | > 100 µM (inactive) | > 100 µM (inactive) | > 100 µM (inactive) | 78 µM (inactive) | > 100 µM (inactive) | > 100 µM (inactive) | > 100 µM (inactive) | > 100 µM (inactive) | > 100 µM (inactive) | > 100 µM (inactive) | > 100 µM (inactive) | > 100 µM (inactive) | > 100 µM (inactive) | > 100 µM (inactive) | > 100 µM (inactive) | > 100 µM (inactive) | > 100 µM (inactive) | > 100 µM (inactive)
